For data set [1] the following is noted: prior art statement; cited from earlier work.
For data set [2] the following is noted: prior art statement; cited from earlier work. The source holds these as a separate data set.
Data set [3] in a line: Toxicity (statement, no method).
The nature of data set [4]: Flammability, thermal stability, saturated vapor pressure / condensation. It counts as physicochemical.
A short description of data set [5]: Dielectric strength measurement in a homogeneous field, relative to SF6. It is filed as physicochemical. As for the experimental part: The results are as follows, expressed in a relative manner as percentage of the dielectric strength of the reference gas SF6: • HCFO-1224yd(Z): 178%.
Its dielectric strength values (with an interelectrode distance of 12 mm) is then as follows, still with respect to SF6: • HCFO-1224yd(Z) at 17° C.: 159%.

With `FS(F)(F)(F)(F)F` [SF6, sulfur hexafluoride], in data set [1], the “flammability (background)” value was “nonflammable”. Further, in data set [2], the “toxicity (background)” value was “nontoxic to man and animals”.

For the molecule `FC(F)(F)I` [trifluoroiodomethane], the “toxicity (background)” value in data set [2] is “category-3 carcinogenic, mutagenic and reprotoxic substances”.

`FC(=CCl)C(F)(F)F` [HCFO-1224yd(Z), 1-chloro-2,3,3,3-tetrafluoropropene]: the toxicity entry in data set [3] is “very low level of toxicity”. Besides, in data set [4], the flammability entry is on record as “nonflammable” and the thermal stability result is listed as “thermally stable”. In addition, the “minimum temperature of use in the pure state without condensation” value in data set [4] (pressure of 1.14 bar) was 17 °C. In data set [4] (−15° C.), this molecule gave a saturated pressure of 0.29 bar. Also, in data set [5] (20° C., 1.3 bar, homogeneous field, interelectrode distance 12 mm), the “dielectric strength as percentage of the dielectric strength of the reference gas SF6” value was 178%. Also, the “dielectric strength with respect to SF6” value in data set [5] (pure state, 17° C., 1.14 bar, interelectrode distance 12 mm) came to 159%.

Consider `O=C=O` [CO2, carbon dioxide, reference compound], for which the “dielectric strength as % of that of SF6” value in data set [5] (−15° C., 1.14 bar) was found to be 51%.

The record behind these values is US11133139B2, “Use of 1-chloro-2,3,3,3-tetrafluoropropene for isolating or extinguishing electric arcs” (Arkema France, priority 2018, dated 2021).
